Measured values published in patent US11524968B2, “Heterocyclic compound as a protein kinase inhibitor” (HK inno.N Corporation, priority 2017, dated 2022).

target: JAK1 (Homo sapiens (Human), UniProt P23458); experiment: Analysis of JAK1 activity inhibition ability (ADP-Glo Kinase Assay); assay type: biochemical; conditions: JAK1 enzyme, ADP-Glo luminescence, ATP 250 uM, IRS-itide substrate, 30° C. 40 minutes; read-out: IC50
Summary of the method: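 ADP-Glo luminescence read-out of ADP production, with IC50 taken as the concentration halving JAK1 activity relative to control. Enzyme was incubated 40 min at 30 °C with compound, IRS-itide (40 ng/mL) and ATP (250 uM), concentrations as prepared in pH 7.5 Tris-HCl/MgCl2/BSA/DTT buffer.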

Chain of JAK1 (P23458 whole entry): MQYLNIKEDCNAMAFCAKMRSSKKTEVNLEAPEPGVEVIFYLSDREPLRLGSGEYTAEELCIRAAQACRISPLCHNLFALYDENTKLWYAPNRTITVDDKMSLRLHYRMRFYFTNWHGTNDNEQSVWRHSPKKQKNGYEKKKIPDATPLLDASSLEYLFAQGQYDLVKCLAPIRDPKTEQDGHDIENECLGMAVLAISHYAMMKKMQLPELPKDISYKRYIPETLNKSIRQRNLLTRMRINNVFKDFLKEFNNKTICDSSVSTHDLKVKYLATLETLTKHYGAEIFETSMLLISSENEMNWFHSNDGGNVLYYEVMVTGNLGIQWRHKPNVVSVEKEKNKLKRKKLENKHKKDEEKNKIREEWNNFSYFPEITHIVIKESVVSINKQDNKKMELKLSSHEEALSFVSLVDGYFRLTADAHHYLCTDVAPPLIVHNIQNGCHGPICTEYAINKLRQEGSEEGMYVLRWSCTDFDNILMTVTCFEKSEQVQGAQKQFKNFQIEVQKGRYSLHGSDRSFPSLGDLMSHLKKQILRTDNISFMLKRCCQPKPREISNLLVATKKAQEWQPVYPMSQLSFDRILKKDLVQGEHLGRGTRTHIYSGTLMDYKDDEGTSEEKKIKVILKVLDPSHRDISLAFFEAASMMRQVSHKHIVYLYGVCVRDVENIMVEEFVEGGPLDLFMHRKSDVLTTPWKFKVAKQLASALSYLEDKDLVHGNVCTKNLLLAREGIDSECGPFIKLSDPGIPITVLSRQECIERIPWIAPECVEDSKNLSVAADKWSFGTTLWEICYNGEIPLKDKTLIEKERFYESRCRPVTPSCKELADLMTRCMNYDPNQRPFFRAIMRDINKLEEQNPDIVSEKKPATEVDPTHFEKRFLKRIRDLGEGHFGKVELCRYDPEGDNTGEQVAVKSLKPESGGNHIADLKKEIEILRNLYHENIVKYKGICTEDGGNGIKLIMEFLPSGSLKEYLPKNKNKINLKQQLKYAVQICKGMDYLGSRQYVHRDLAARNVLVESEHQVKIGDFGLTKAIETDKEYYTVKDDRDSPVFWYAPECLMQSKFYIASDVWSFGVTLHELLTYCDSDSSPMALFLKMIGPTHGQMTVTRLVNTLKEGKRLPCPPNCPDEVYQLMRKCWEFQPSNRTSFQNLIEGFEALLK

Row | SMILES | IC50 [nM]
1 | O=C(Nc1cc(C2=CCC(NS(=O)(=O)c3cccc(F)c3)CC2)c2cc[nH]c2n1)C1CC1 (centres unmarked) [Example 163, N-(4-(4-((3-fluorophenyl)sulfonamido)cyclohex-1-en-1-yl)-1H-pyrrolo[2,3-b]pyridin-6-yl)cyclopropanecarboxamide] | < 20
2 | CCS(=O)(=O)Nc1ccc(-c2cc(NC(=O)C3CC3)nc3[nH]cc(C)c23)cc1 [Example 93, N-(4-(4-(ethylsulfonamido)phenyl)-3-methyl-1H-pyrrolo[2,3-b]pyridin-6-yl)cyclopropanecarboxamide] | 20 to 200
3 | CCS(=O)(=O)Nc1ccc(-c2cc(NC(=O)C3CC3)nc3[nH]ccc23)nc1F [Example 149, N-(4-(5-(ethylsulfonamido)-6-fluoropyridin-2-yl)-1H-pyrrolo[2,3-b]pyridin-6-yl)cyclopropanecarboxamide] | > 200
4 | O=C(Nc1cc(-c2ccc(CNC3CCS(=O)(=O)C3)cc2)c2cc[nH]c2n1)C1CC1 (centres unmarked) [Example 595, N-(4-(4-(((1,1-dioxidotetrahydrothiophen-3-yl)amino)methyl)phenyl)-1H-pyrrolo[2,3-b]pyridin-6-yl)cyclopropanecarboxamide] | 20 to 200
5 | CN(C)S(=O)(=O)Nc1ccc(-c2nc(NC(=O)C3CC3)nc3[nH]ccc23)cc1 [Example 236, N-(4-(4-((N,N-dimethylsulfamoyl)amino)phenyl)-7H-pyrrolo[2,3-d]pyrimidin-2-yl)cyclopropanecarboxamide] | 20 to 200
6 | CC1CN(C(=O)c2ccncc2Cl)CC=C1c1cc(NC(=O)C2CC2)nc2[nH]ccc12 (centres unmarked) [Example 376, N-(4-(1-(3-chloroisonicotinoyl)-3-methyl-1,2,3,6-tetrahydropyridin-4-yl)-1H-pyrrolo[2,3-b]pyridin-6-yl)cyclopropanecarboxamide] | 20 to 200
7 | COc1cc(C(=O)N2CC(NC3CC=C(c4cc(NC(=O)C5CC5)nc5[nH]ccc45)CC3)C2)ccn1 (centres unmarked) [Example 497, N-(4-(4-((1-(2-methoxyisonicotinoyl)azetidin-3-yl)amino)cyclohex-1-en-1-yl)-1H-pyrrolo[2,3-b]pyridin-6-yl)cyclopropanecarboxamide] | 20 to 200
8 | CC1CN(C(=O)c2cccnc2Cl)CC=C1c1cc(NC(=O)C2CC2)nc2[nH]ccc12 (centres unmarked) [Example 349, N-(4-(1-(2-chloronicotinoyl)-3-methyl-1,2,3,6-tetrahydropyridin-4-yl)-1H-pyrrolo[2,3-b]pyridin-6-yl)cyclopropanecarboxamide] | 20 to 200
9 | CC(C)(C)OC(=O)N1CCC(c2cc(NC(=O)C3CC3)nc3[nH]ccc23)C(O)C1 (centres unmarked) [Example 655, tert-butyl 4-(6-(cyclopropanecarboxamido)-1H-pyrrolo[2,3-b]pyridin-4-yl)-3-hydroxypiperidine-1-carboxylate] | > 200
10 | CCc1cc(-c2cc(NC(=O)C3CC3)nc3[nH]ccc23)cc(CC)c1NS(=O)(=O)c1ccc(F)c(F)c1 [Example 139, N-(4-(4-((3,4-difluorophenyl)sulfonamido)-3,5-diethylphenyl)-1H-pyrrolo[2,3-b]pyridin-6-yl)cyclopropanecarboxamide] | > 200
11 | CS(=O)(=O)Nc1ccc(-c2cc(NC(=O)C3CC3)nc3[nH]ccc23)cc1-c1ccccc1 [Example 129, N-(4-(6-(methylsulfonamido)-[1,1′-biphenyl]-3-yl)-1H-pyrrolo[2,3-b]pyridin-6-yl)cyclopropanecarboxamide] | > 200
12 | Cc1cc(NC(=O)NCC(F)(F)F)ccc1-c1cc(NC(=O)C2CC2)nc2[nH]ccc12 [Example 436, N-(4-(2-methyl-4-(3-(2,2,2-trifluoroethyl)ureido)phenyl)-1H-pyrrolo[2,3-b]pyridin-6-yl)cyclopropanecarboxamide] | 20 to 200
13 | O=C(Nc1cc(-c2ccc(OS(=O)(=O)c3ccc(F)cc3)cc2)c2cc[nH]c2n1)C1CC1 [Example 630, 4-(6-(cyclopropanecarboxamido)-1H-pyrrolo[2,3-b]pyridin-4-yl)phenyl 4-fluorobenzenesulfonate] | > 200
14 | N#CCC1(CS(=O)(=O)Nc2c(F)cc(-c3cc(NC(=O)C4CC4)nc4[nH]ccc34)cc2F)CC1 [Example 108, N-(4-(4-(((1-(cyanomethyl)cyclopropyl)methyl)sulfonamido)-3,5-difluorophenyl)-1H-pyrrolo[2,3-b]pyridin-6-yl)cyclopropanecarboxamide] | < 20
15 | N#CCCCn1ccc2c(-c3ccc(OS(=O)(=O)CCCC#N)cc3)cc(NC(=O)C3CC3)nc21 [Example 640, 4-(1-(3-cyanopropyl)-6-(cyclopropanecarboxamido)-1H-pyrrolo[2,3-b]pyridin-4-yl)phenyl 3-cyanopropane-1-sulfonate] | > 200
16 | CCc1cc(NS(=O)(=O)CC2(C#N)CC2)ccc1-c1cc(NC(=O)C2CC2)[n+]([O-])c2[nH]ccc12 [Example 137, 4-(4-(((1-cyanocyclopropyl)methyl)sulfonamido)-2-ethylphenyl)-6-(cyclopropanecarboxamido)-1H-pyrrolo[2,3-b]pyridine 7-oxide] | < 20
17 | CCS(=O)(=O)Nc1ccc(-c2cc(NC(=O)C3CC3)nc3[nH]ccc23)c(C(=O)OC)c1 [Example 140, methyl 2-(6-(cyclopropanecarboxamido)-1H-pyrrolo[2,3-b]pyridin-4-yl)-5-(ethylsulfonamido)benzoate] | > 200

Continued, values first:

Row | IC50 [nM] | SMILES
18 | < 20 | O=C(Nc1cc(-c2ccc(NS(=O)(=O)CC3CC3)c(F)c2)c2cc[nH]c2n1)C1CC1 [Example 80, N-(4-(4-((cyclopropylmethyl)sulfonamido)-3-fluorophenyl)-1H-pyrrolo[2,3-b]pyridin-6-yl)cyclopropanecarboxamide]
19 | 20 to 200 | O=C(Cc1ccc(-c2cc(NC(=O)C3CC3)nc3[nH]ccc23)cc1)NCC(F)(F)F [Example 537, N-(4-(4-(2-oxo-2-((2,2,2-trifluoroethyl)amino)ethyl)phenyl)-1H-pyrrolo[2,3-b]pyridin-6-yl)cyclopropanecarboxamide]
20 | 20 to 200 | Cc1cc(C(=O)NCC#N)ccc1-c1cc(NC(=O)C2CC2)nc2[nH]ccc12 [Example 526, N-(cyanomethyl)-4-(6-(cyclopropanecarboxamido)-1H-pyrrolo[2,3-b]pyridin-4-yl)-3-methylbenzamide]
21 | 20 to 200 | Cc1cc(C(=O)NCC(F)(F)F)ccc1-c1cc(NC(=O)C2CC2)nc2[nH]ccc12 [Example 525, 4-(6-(cyclopropanecarboxamido)-1H-pyrrolo[2,3-b]pyridin-4-yl)-3-methyl-N-(2,2,2-trifluoroethyl)benzamide]
22 | < 20 | CCS(=O)(=O)Nc1ccc(-c2cc(NC(=O)C3CC3)nc3[nH]ccc23)cc1F [Example 1, N-(4-(4-(ethylsulfonamido)-3-fluorophenyl)-1H-pyrrolo[2,3-b]pyridin-6-yl)cyclopropanecarboxamide]
23 | 20 to 200 | CCC(C#N)C(=O)N1CC=C(c2cc(NC(=O)C3CC3)nc3[nH]ccc23)CC1 (centres unmarked) [Example 271, N-(4-(1-(2-cyanobutanoyl)-1,2,3,6-tetrahydropyridin-4-yl)-1H-pyrrolo[2,3-b]pyridin-6-yl)cyclopropanecarboxamide]
24 | < 20 | N#CCC1(CS(=O)(=O)NC2CC=C(c3cc(NC(=O)C4CC4)nc4[nH]ccc34)CC2)CC1 (centres unmarked) [Example 156, N-(4-(4-(((1-(cyanomethyl)cyclopropyl)methyl)sulfonamido)cyclohex-1-en-1-yl)-1H-pyrrolo[2,3-b]pyridin-6-yl)cyclopropanecarboxamide]
25 | 20 to 200 | C[C@@H]1CN(C(=O)CCl)CC=C1c1cc(NC(=O)C2CC2)nc2[nH]ccc12 [Example 401, (S)—N-(4-(1-(2-chloroacetyl)-3-methyl-1,2,3,6-tetrahydropyridin-4-yl)-1H-pyrrolo[2,3-b]pyridin-6-yl)cyclopropanecarboxamide]
26 | 20 to 200 | N#CCNC(=O)C1CC=C(c2cc(NC(=O)C3CC3)nc3[nH]ccc23)CC1 (centres unmarked) [Example 530, N-(cyanomethyl)-4-(6-(cyclopropanecarboxamido)-1H-pyrrolo[2,3-b]pyridin-4-yl)cyclohex-3-ene-1-carboxamide]
27 | 20 to 200 | C[C@@H]1CN(C(=O)C2(C#N)CCOCC2)CC=C1c1cc(NC(=O)C2CC2)nc2[nH]ccc12 [Example 407, (S)—N-(4-(1-(4-cyanotetrahydro-2H-pyran-4-carbonyl)-3-methyl-1,2,3,6-tetrahydropyridin-4-yl)-1H-pyrrolo[2,3-b]pyridin-6-yl)cyclopropanecarboxamide]
28 | > 200 | O=C(Nc1cc(C2=CCN(C(=O)CCC(F)(F)F)C2)c2cc[nH]c2n1)C1CC1 [Example 429, N-(4-(1-(4,4,4-trifluorobutanoyl)-2,5-dihydro-1H-pyrrol-3-yl)-1H-pyrrolo[2,3-b]pyridin-6-yl)cyclopropanecarboxamide]
29 | 20 to 200 | CC1CN(C(=O)CC2CCCC2)CC=C1c1cc(NC(=O)C2CC2)nc2[nH]ccc12 (centres unmarked) [Example 340, N-(4-(1-(2-cyclopentylacetyl)-3-methyl-1,2,3,6-tetrahydropyridin-4-yl)-1H-pyrrolo[2,3-b]pyridin-6-yl)cyclopropanecarboxamide]
30 | < 20 | O=C(Nc1cc(C2=CCC(NS(=O)(=O)CCCF)CC2)c2cc[nH]c2n1)C1CC1 (centres unmarked) [Example 159, N-(4-(4-((3-fluoropropyl)sulfonamido)cyclohex-1-en-1-yl)-1H-pyrrolo[2,3-b]pyridin-6-yl)cyclopropanecarboxamide]
31 | < 20 | N#CCCCS(=O)(=O)Nc1ccc(-c2cc(NC(=O)C3CC3)nc3[nH]ccc23)cc1F [Example 77, N-(4-(4-((3-cyanopropyl)sulfonamido)-3-fluorophenyl)-1H-pyrrolo[2,3-b]pyridin-6-yl)cyclopropanecarboxamide]
32 | > 200 | N#CCC(=O)N1C=C(c2cc(NC(=O)C3CC3)nc3[nH]ccc23)CCC1 [Example 419, N-(4-(1-(2-cyanoacetyl)-1,4,5,6-tetrahydropyridin-3-yl)-1H-pyrrolo[2,3-b]pyridin-6-yl)cyclopropanecarboxamide]
